How the values were obtained:
[1] = Compound stability in human liver microsomes; format: in vitro ADME; settings: for half-life at 5 μM: human liver microsomes 0.5 mg protein/mL, compound 5 μM, NADPH 1.0 mM, pH 7.4, 37° C., read-out: Human T1/2; for CLint scaled at 5 μM: liver microsomes, pH 7.4, in vivo CLint extrapolated from human liver microsome incubation
Protocol: (§1) The LC/MS/MS system used in the analysis consists of an Agilent 1200 Series vacuum degasser, binary pump, well-plate autosampler, thermostatted column compartment, the Agilent G6430 Triple Quadrupole Mass Spectrometer with an electrosprayionization (ESI) source. Quantitative analysis was carried out using MRM mode. The parameters for MRM transitions are in the Table A.
(§2) An Agilent XDB-C18, 2.1×30 mm, 3.5 μM column was used for the analysis. 5 μL of the samples were injected. Analysis condition: The mobile phase was 0.1% formic acid in water (A) and 0.1% formic acid in methanol (B). The flow rate was 0.4 mL/min. And the gradient of Mobile phase was in the Table B.
(§3) Alternatively, an Agilent 6330 series LC/MS/MS spectrometer equipped with G1312A binary pumps, a G1367A autosampler and a G1314C UV detector were used in the analysis. An ESI source was used on the LC/MS/MS spectrometer. The analysis was done in positive ion mode as appropriate and the MRM transition for each analyte was optimized using standard solution. A Capcell MP-C18 100×4.6 mm I.D., 5 uM column (Phenomenex, Torrance, Calif., USA) was used during the analysis. The mobile phase was 5 mM ammonia acetate, 0.1% MeOH in water (A): 5 mM ammonia acetate, 0.1% MeOH in acetonitrile (B) (70/30, v/v). The flow rate was 0.6 mL/min. Column was maintained at ambient temperature. 20 μL of the samples were injected.
(§4) Human or rat liver microsomes incubations were conducted in duplicate in polypropylene tubes. The typical incubation mixtures consisted of human or rat liver microsomes (0.5 mg protein/mL), compounds of interest (5 μM) and NADPH (1.0 mM) in a total volume of 200 μL potassium phosphate buffer (PBS, 100 mM, pH 7.4). Compounds were dissolved in DMSO and diluted with PBS such that the final concentration of DMSO was 0.05%. The enzymatic reactions were commenced with the addition of […] after a 3-min preincubation and incubated in a water bath open to the air at 37° C. Reactions were terminated at various time points (0, 5, 10, 15, 30, 60 min) by adding equal volume of ice-cold acetonitrile. The samples were stored at […] until LC/MS/MS assays.
(§5) The concentrations of compounds in the incubation mixtures of human or rat liver microsomes were determined by a LC/MS/MS method. The ranges of the linearity in the concentration range were determined for each tested compounds.
(§6) A parallel incubation was performed using denatured microsomes as the negative control, and reactions were terminated at various time points (0, 15, 60 min) after incubation at 37° C.
(§7) Dextromethorphan (70 μM) was selected as the positive control, and reactions were terminated at various time points (0, 5, 10, 15, 30, 60 min) after incubation at 37° C. Both positive and negative control samples were included in each assay to ensure the integrity of the microsomal incubation system.
(§8) The concentrations of compounds in human or rat liver microsome incubations were plotted as a percentage of the relevant zero time point control for each reaction. The in vivo CLint were extrapolated (ref.: Naritomi, Y.; Terashita, S.; Kimura, S.; Suzuki, A.; Kagayama, A.; and Sugiyama, Y.; Prediction of human hepatic clearance from in vivo animal experiments and in vitro metabolic studies with liver microsomes from animals and humans. Drug Metab. Dispos., 2001, 29: 1316-1324).

[2] = Compound stability in rat liver microsomes; format: in vitro ADME; settings: for CLint scaled at 5 μM: liver microsomes, pH 7.4, in vivo CLint extrapolated from rat liver microsome incubation; for half-life at 5 μM: rat liver microsomes 0.5 mg protein/mL, compound 5 μM, NADPH 1.0 mM, pH 7.4, 37° C., read-out: Rat T1/2
Protocol: as §1, §2, §3, §4, §5, §6, §7, §8

[3] = Pharmacokinetics after intravenous and oral administration in rats; format: in vivo; settings: for Clearance (CL) after iv dosing / AUC(0-t) / half-life / Vd: dose 1 mg/kg (Ex. 9: 0.6, Ex. 18: 0.5, Ex. 50: 0.96 mg/kg), iv dosing; for AUC(0-t) / half-life / Vd / bioavailability: rat, plasma; for Vd: read-out: Vss; for bioavailability: oral (generally 5 or 10 mg/kg) versus iv dosing, read-out: F (oral bioavailability)
Protocol: as §1, §2, §3
The compounds disclosed herein are assessed in pharmacokinetic studies in mice, rats, dogs or monkeys. The compounds are administered as a water solution, 2% HPMC+1% TWEEN®80 in water solution, 5% DMSO+5% solutol in saline, 4% MC suspension or capsule. For the intravenous administration, the animals are generally given at about 0.5, 0.6, 1 or 2 mg/kg dose. For the oral (p.o.) dosing, mice and rats are generally given 5 or 10 mg/kg dose, and dogs and monkeys are generally given 10 mg/kg dose. The blood samples (0.3 mL) are drawn at 0.25, 0.5, 1.0, 2.0, 3.0, 4.0, 6.0, 8.0, 12 and 24 h time points or 0.083, 0.25, 0.5, 1.0, 2.0, 4.0, 6.0, 8.0 and 24 h time points and centrifuged at 3,000 or 4000 rpm for 2 to 10 min. The plasma solutions are collected, and stored at […] until analyzed by LC/MS/MS as described above.

| half-life at 5 μM [1] [min] | CLint scaled at 5 μM [1] [mL/min/kg] | CLint scaled at 5 μM [2] [mL/min/kg] | half-life at 5 μM [2] [min] | Clearance (CL) after iv dosing [3] [mL/min/kg] | AUC(0-t) [3] [ng·h/mL] | half-life [3] [min] | Vd [3] [L/kg] | bioavailability [3] [%] | SMILES |
| --- | --- | --- | --- | --- | --- | --- | --- | --- | --- |
| 22.3 | 78.1 | 75.4 | 32.9 | 19 | 909 | 43.8 | 1.05 | 35.1 | N#Cc1ccc(N2CCC(Nc3nc(Nc4ccn5ccnc5c4)ncc3Cl)CC2)nn1 [Example 4, 6-(4-((5-chloro-2-(imidazo[1,2-a]pyridin-7-ylamino)pyrimidin-4-yl)amino)piperidin-1-yl)pyridazine-3-carbonitrile] |
| – | – | – | – | 7.17 | 2340 | 265 | 0.56 | 42.7 | CCC1CN(c2ccc(C#N)cn2)CCC1Nc1nc(Nc2ccn3cnnc3c2)ncc1Cl (stereo not shown) [Example 5, 6-(4-((2-([1,2,4]triazolo[4,3-a]pyridin-7-ylamino)-5-chloropyrimidin-4-yl)amino)-3-ethylpiperidin-1-yl)nicotinonitrile] |
| – | – | – | – | 6.33 | 2690 | 283 | 0.76 | 71 | CCC1CN(c2ccc(C#N)cn2)CCC1Nc1nc(Nc2ccn3ccnc3c2)ncc1Cl (stereo not shown) [Example 6, 6-(4-((5-chloro-2-(imidazo[1,2-a]pyridin-7-ylamino)pyrimidin-4-yl)amino)-3-ethylpiperidin-1-yl)nicotinonitrile] |
| 148 | 11.7 | 112 | 22.2 | – | – | – | – | – | CCC1CN(c2ccc(C#N)nn2)CCC1Nc1nc(Nc2ccn3cnnc3c2)ncc1Cl (stereo not shown) [Example 7, 6-(4-((2-([1,2,4]triazolo[4,3-a]pyridin-7-ylamino)-5-chloropyrimidin-4-yl)amino)-3-ethylpiperidin-1-yl)pyridazine-3-carbonitrile] |
| 71.9 | 24.2 | 303 | 8.21 | 20.8 | 547 | 48.6 | 1.13 | 69.1 | CN(c1nc(Nc2ccc3ncnn3c2)ncc1Cl)C1CCN(c2ccc(C#N)cn2)CC1 [Example 9, 6-(4-((2-([1,2,4]triazolo[1,5-a]pyridin-6-ylamino)-5-chloropyrimidin-4-yl) (methyl)amino)piperidin-1-yl)nicotinonitrile] |
| 330 | 5.26 | 0.34 | 5050 | – | – | – | – | – | CCC1CN(c2ccc(C#N)nn2)CCC1N(C)c1nc(Nc2ccn3c(C)cnc3c2)ncc1Cl (stereo not shown) [Example 11, 6-(4-((5-chloro-2-((3-methylimidazo[1,2-a]pyridin-7-yl)amino)pyrimidin-4-yl)(methyl)amino)-3-ethylpiperidin-1-yl)pyridazine-3-carbonitrile] |
| 22 | 78.9 | 834 | 2.98 | – | – | – | – | – | CCC1CN(c2ccc(C#N)nn2)CCC1Nc1nc(Nc2ccn3c(C4CC4)cnc3c2)ncc1Cl (stereo not shown) [Example 15, 6-(4-((5-chloro-2-((3-cyclopropylimidazo[1,2-a]pyridin-7-yl)amino)pyrimidin-4-yl)amino)-3-ethylpiperidin-1-yl)pyridazine-3-carbonitrile] |
| 44 | 39.5 | 302 | 8.22 | 17.8 | 949 | 36 | 0.67 | 48.2 | CCC1CN(c2ccc(C#N)cn2)CCC1Nc1nc(Nc2ccn3c(C)nnc3c2)ncc1Cl (stereo not shown) [Example 17, 6-(4-((5-chloro-2-((3-methyl-[1,2,4]triazolo[4,3-a]pyridin-7-yl)amino)pyrimidin-4-yl)amino)-3-ethylpiperidin-1-yl)nicotinonitrile] |
| – | – | – | – | 13.2 | 638 | 35.4 | 0.5 | 79.4 | N#Cc1ccc(N2CCC(Nc3nc(Nc4cnn5ccnc5c4)ncc3Cl)CC2)nc1 [Example 18, 6-(4-((5-chloro-2-(imidazo[1,2-b]pyridazin-7-ylamino)pyrimidin-4-yl)amino)piperidin-1-yl)nicotinonitrile] |
| 388 | 4.5 | 11.7 | 213 | – | – | – | – | – | Cc1cn2c(C)cnc2cc1Nc1ncc(Cl)c(NC2CCN(c3ccc(C#N)nn3)CC2)n1 [Example 22, 6-(4-((5-chloro-2-((3,6-dimethylimidazo[1,2-a]pyridin-7-yl)amino)pyrimidin-4-yl)amino)piperidin-1-yl)pyridazine-3-carbonitrile] |
| – | – | – | – | 19.7 | 844 | 63 | 1.68 | 63 | Cc1cnc2cc(Nc3ncc(Cl)c(NC4CCN(c5ccc(C#N)cn5)CC4)n3)ccn12 [Example 23, 6-(4-((5-chloro-2-((3-methylimidazo[1,2-a]pyridin-7-yl)amino)pyrimidin-4-yl)amino)piperidin-1-yl)nicotinonitrile] |
| – | – | – | – | 11.5 | 1460 | 55.8 | 0.83 | 47.8 | Cc1cn2ncc(Nc3ncc(Cl)c(NC4CCN(c5ccc(C#N)cn5)CC4)n3)cc2n1 [Example 37, 6-(4-((5-chloro-2-((2-methylimidazo[1,2-b]pyridazin-7-yl)amino)pyrimidin-4-yl)amino)piperidin-1-yl)nicotinonitrile] |
| 198 | 8.8 | 57.9 | 42.9 | – | – | – | – | – | CCC1CN(c2ccc(C#N)cn2)CCC1Nc1nc(Nc2ccn3c(C(C)(C)O)nnc3c2)ncc1Cl (stereo not shown) [Example 41] |
| 31.6 | 54.9 | 73.1 | 34 | – | – | – | – | – | CC(O)Cn1cnc2ncc(Nc3ncc(Cl)c(NC4CCN(c5ccc(C#N)cn5)CC4)n3)cc21 (stereo not shown) [Example 51, 6-(4-((5-chloro-2-((1-(2-hydroxypropyl)-1H-imidazo[4,5-b]pyridin-6-yl)amino)pyrimidin-4-yl)amino)piperidin-1-yl)nicotinonitrile] |
